{"source": "patent USRE29359E", "about": "“Bronchodilator expectorant composition containing theophylline and a guaiacol” (priority 1976, dated 1977)", "key": {"[1]": {"details": "cited from earlier work"}, "[2]": {"experiment": "Guaiacol as solubilizing agent for theophylline in water (Example 2)", "format": "physicochemical", "description": "In order to test the effectiveness of guaiacol as a solubilizing agent for theophylline in water, an experiment corresponding to the last entry in the table accompanying Example 1 is conducted. Theophylline, 4.0 g., and guaiacol, 4.39 g. […] A haze forms as the result of liquefaction of the guaiacol without complete solution thereof.\nThis amount will solubilize up to and including 4.25 g. of theophylline per 100 ml. of water in the composition. For lower theophylline concentrations, proportionately less guaiacol may be used, 0.47 g. thereof per 100 ml. being sufficient to solubilize 0.85 g. of theophylline per 100 ml."}, "[3]": {"experiment": "Sucrose as supplementary solubilizing agent, crystallization after 3 days (Example 5)", "description": "Solutions containing varying quantities of theophylline, glyceryl guaiacolate, and sucrose according to the figures arranged in the following table are prepared. The ingredients are warmed to about 60° C. to effect solution and the solutions are then kept at room temperature to observe whether crystallization occurs. Sucrose is taken as representative of the total of all other water soluble pharmaceutically acceptable ingredients that may be used in formulating the present compositions for the purposes of this experiment. It is apparent, of course, that the actual weight of flavors, colors, and other ingredients that will ordinarily be used for the purpose of creating pharmaceutical elegance will be relatively minor and that sucrose or equivalent material such as corn syrup or sorbitol is the only ingredient of this type which will ordinarily be used in substantial quantity.\n(§1) (1) per 100 ml. of solution.\n(§2) (2) per 100 ml. of water in solution.\n*Appearance of duplicate samples after being stored separately at\n26° C. and at 0° C. for 3 days."}, "[4]": {"experiment": "Solubility of theophylline in water with glyceryl guaiacolate, crystallization after 3 days (Example 1)", "format": "physicochemical", "details": "for Result (appearance after storage): 3 days", "description": "Varying quantities of theophylline and glyceryl guaiacolate are mixed and warmed with sufficient water to provide 100 ml. of solution. The solutions are cooled, adjusted to 100 ml. volume, and kept for 3 days to allow crystallization to take place. The specific gravities of the fresh solutions are measured, and the amount of water contained in 100 ml. of solution calculated. Two identical tubes of each composition are prepared. One is kept at room temperature (25° C.) and the other at 0° C.\nA larger quantity of theophylline, 1.0 g./100 ml., will, however, dissolve when 0.75 g. of glyceryl guaiacolate per 100 ml. is also present in solution. Up to 4.0 g. of theophylline per 100 ml. of solution is soluble at room temperature when 7.0 g. of glyceryl guaiacolate per 100 ml. of solution is employed.\nas §1, §2"}, "[5]": {"details": "cited from earlier work", "remark": "listed apart in the source"}, "[6]": {"details": "accepted by the art; cited from earlier work"}, "[7]": {"experiment": "Solubility in water or ethanol (statements in the description)"}, "[8]": {"details": "cited from earlier work", "remark": "listed apart in the source"}}, "note": "Like-named read-outs stand apart in the source and are kept apart here.", "data": [{"smiles": "COc1ccccc1O", "note": "[guaiacol]", "values": [{"measurement": "concentration of saturated solution in water", "setting": "[1]; room temperature, absence of other solutes", "value": 1.7, "unit": "g./100 ml."}, {"measurement": "water solubility", "setting": "[1]", "value": "≥ 1.7", "unit": "g./100 ml."}, {"measurement": "specific gravity of solution", "setting": "[2]; guaiacol 3.8 g, theophylline 4.0 g", "value": "~1.016"}, {"measurement": "crystallization on storage", "setting": "[2]; guaiacol 3.8 g, 3 days, room temperature or 0 °C", "value": "no crystals separate"}, {"measurement": "useful upper guaiacol solubility ratio", "setting": "[2]; room temperature or 0 °C, 4320 min", "value": "about 4.05 g. per 100 ml. of water"}, {"measurement": "appearance of solution", "setting": "[2]; theophylline 4.0 g, guaiacol 3.8 g", "value": "clear solution"}, {"measurement": "appearance of solution", "setting": "[2]; theophylline 4.0 g, guaiacol 4.39 g", "value": "A haze forms"}, {"measurement": "guaiacol dissolved in 100 ml. of water", "setting": "[2]; with 4.37 g. theophylline", "value": 4.05, "unit": "g"}]}, {"smiles": "COc1ccccc1OCC(O)CO", "note": "(stereo not drawn) [glyceryl guaiacolate]", "values": [{"measurement": "concentration of saturated solution in water", "setting": "[1]; 25 °C", "value": 5, "unit": "g./100 ml."}, {"measurement": "water solubility", "setting": "[1]", "value": "≥ 1.7", "unit": "g./100 ml."}, {"measurement": "glyceryl guaiacolate per 100 ml. of water in composition", "setting": "[3]", "value": "8.7 g. per 100 ml. of water"}, {"measurement": "glyceryl guaiacolate upper concentration limit with sucrose", "setting": "[3]; water, 72 h", "value": "≥ 8.7 g. per 100 ml. of water"}]}, {"smiles": "Cn1c(=O)c2[nH]cnc2n(C)c1=O", "note": "[theophylline]", "values": [{"measurement": "crystallization at ice temperature", "setting": "[4]; 4.0 g theophylline, 7.0 g glyceryl guaiacolate per 100 ml. solution", "value": "Crystallization at ice temperature does, however, occur"}, {"measurement": "crystallization at ice temperature", "setting": "[4]; 4.37 g theophylline, 7.64 g glyceryl guaiacolate per 100 ml. water", "value": "Slight crystallization"}, {"measurement": "theophylline soluble per 100 ml. of solution", "setting": "[4]; glyceryl guaiacolate 7.0 g. per 100 ml. of solution, room temperature, 4320 min", "value": "Up to 4.0 g. per 100 ml. of solution"}, {"measurement": "Result (appearance after storage)", "setting": "[4]; theophylline 0.83 g, glyceryl guaiacolate 0 per 100 ml solution, 25 °C", "value": "Clear Solution"}, {"measurement": "Result (appearance after storage)", "setting": "[4]; theophylline 0.85 g, glyceryl guaiacolate 0 per 100 ml solution, 0 °C", "value": "Crystals formed."}, {"measurement": "Result (appearance after storage)", "setting": "[4]; theophylline 1.00 g, glyceryl guaiacolate 0.75 g per 100 ml solution, 25 °C", "value": "Solution clear."}, {"measurement": "Result (appearance after storage)", "setting": "[4]; theophylline 3.50 g, glyceryl guaiacolate 4.00 g per 100 ml solution, 0 °C", "value": "Crystals formed."}, {"measurement": "Result (appearance after storage)", "setting": "[4]; theophylline 3.50 g, glyceryl guaiacolate 5.00 g per 100 ml solution, 25 °C", "value": "Clear solution."}, {"measurement": "Result (appearance after storage)", "setting": "[4]; theophylline 4.00 g, glyceryl guaiacolate 7.00 g per 100 ml solution, 0 °C", "value": "Crystals formed."}, {"measurement": "Result (appearance after storage)", "setting": "[4]; theophylline 4.00 g, glyceryl guaiacolate 7.00 g per 100 ml solution, 25 °C", "value": "Clear solution."}, {"measurement": "solubility", "setting": "[4]; water, no glyceryl guaiacolate, read-out: normal solubility of theophylline (exceeded by)", "value": "< 8.5", "unit": "mg/mL"}, {"measurement": "solubility in ethanol", "setting": "[1]; published figure", "value": 1.25, "unit": "g./100 ml."}, {"measurement": "pain on intramuscular injection", "setting": "[5]; intramuscular", "value": "painful"}, {"measurement": "absorption pattern", "setting": "[5]; oral", "value": "irregular absorption pattern"}, {"measurement": "gastrointestinal side effects", "setting": "[5]; oral", "value": "frequently results in abdominal discomfort, nausea, and vomiting"}, {"measurement": "therapeutic blood concentration", "setting": "[6]", "value": 5, "unit": "µg/mL"}, {"measurement": "theophylline per 100 ml. of water in composition", "setting": "[3]", "value": "4.4 g. per 100 ml. of water"}, {"measurement": "solubility at 72 h", "setting": "[3]; water", "value": "≥ 44", "unit": "mg/mL"}, {"measurement": "concentration in aqueous solution with guaiacol or water soluble forms thereof", "setting": "[7]; solubilized by guaiacol and water soluble forms", "value": "≤ 4.0", "unit": "g./100 ml."}, {"measurement": "effect of water soluble ingredients on theophylline solubility", "setting": "[7]; sucrose, sorbitol, glycerol, ethanol, solubilized by guaiacol and its derivatives", "value": "do not tend to diminish the solubility of the theophylline significantly"}, {"measurement": "solubility", "setting": "[7]; water", "value": 80, "unit": "mg/mL"}, {"measurement": "theophylline solubilized by guaiacol", "setting": "[2]; guaiacol 0.47 g. per 100 ml.", "value": 0.85, "unit": "g. per 100 ml."}, {"measurement": "theophylline solubilized per 100 ml. of water", "setting": "[2]; guaiacol about 4.05 g. per 100 ml. water, 4320 min", "value": "≤ 4.25 g. per 100 ml. of water"}]}, {"smiles": "COc1ccccc1OC1(O)C(=O)NC(=O)NC1=O", "note": "[hemiacetal condensation product of guaiacol and alloxan]", "values": [{"measurement": "water solubility", "setting": "[1]", "value": "≥ 1.7", "unit": "g./100 ml."}]}, {"smiles": "COc1cc(S(=O)(=O)[O-])ccc1O.O.[K+]", "note": "[potassium guaiacol sulfonate]", "values": [{"measurement": "water solubility", "setting": "[1]", "value": "≥ 1.7", "unit": "g./100 ml."}, {"measurement": "crystallization on storage", "setting": "potassium guaiacol sulfonate 4.28 g, theophylline 1.5 g per 100 ml., ice temperature", "value": "Slight crystallization occurs"}, {"measurement": "appearance of solution", "setting": "potassium guaiacol sulfonate 4.28 g, theophylline 1.5 g per 100 ml., room temperature", "value": "clear solution"}, {"measurement": "crystallization on storage", "setting": "potassium guaiacol sulfonate 4.28 g, theophylline 2 g per 100 ml., 0 °C", "value": "Crystallization from this solution occurs"}, {"measurement": "separation of solid on storage", "setting": "potassium guaiacol sulfonate 4.28 g, theophylline 2 g per 100 ml., room temperature", "value": "only very slight separation of solid material occurs"}, {"measurement": "crystallization on storage", "setting": "potassium guaiacol sulfonate 8.56 g, theophylline 4.0 g in 100 ml., 0 °C", "value": "Crystallization from this solution occurs"}, {"measurement": "crystallization on storage", "setting": "potassium guaiacol sulfonate 8.56 g, theophylline 4.0 g in 100 ml., room temperature", "value": "Crystallization from this solution occurs"}]}, {"smiles": "Cn1c(=O)c2[nH]cnc2n(C)c1=O", "note": "[aminophylline]", "values": [{"measurement": "precipitation under acidic conditions", "setting": "[8]; acidic conditions such as occur in the stomach", "value": "precipitation often occurs"}, {"measurement": "solubility in alkaline solution", "setting": "[8]; in excess of pH 8.0", "value": "relatively high solubilities in alkaline solution"}]}]}
